Assay results from patent US12465614B2, “Budesonide 21-phosphate salts and pharmaceutical compositions containing the same” (GENETIC S.P.A., priority 2020, dated 2025).
Entries after “also recorded” stand apart in the source; their conditions may differ.

Tests used:
Assay type in all cases: in vivo
OVA-sensitized mice [1] = details: mouse, in vivo
OVA-sensitized mice [2] = assay: Bronchial relaxation to salbutamol, isolated bronchi of OVA-sensitized mice (Experimental Groups I); details: 1 mg/Kg i.p.; rings precontracted with carbachol; vs OVA group; FIG. 10B
IgE = assay: Plasma IgE levels in OVA-sensitized mice, ELISA (Experimental Groups I); details: 1 mg/Kg i.p.; vs OVA group; FIG. 10 panel C
Method: Female Balb/c (8-week-old, Charles River, Calco, Italy) were housed in the animal care facility of the Department of Pharmacy of the University of Naples, Italy in a controlled environment (temperature 21±2° C. and humidity 60±10%) and provided with standard rodent chow and water. All animals were allowed to acclimate for four days prior to experiments and were subjected to 12 h light−12 h dark schedule. Experiments were conducted during the light phase. The experimental procedures were approved by the Italian Ministry according to International and National law and policies (EU Directive 2010/63/EU and Italian DL 26/2014 for animal experiments). […] The compounds were dissolved in DMSO (Sigma Chemical Co., St. Louis, MO) at concentrations at which the determined dose per animal results from the intraperitoneal administration of 100 μl of solution (1:10 DMSO) and intra-nasal (i.n.) administration of 10 μl/animal (5 μl/nostril) of the solutions. […] Plasma levels of IgE were measured as index of sensitization. […] Total IgE levels were measured by means of ELISA using matched antibody pairs (BD Biosciences Pharmingen San Jose, CA).

[3] = tested on: mice with OVA-induced allergic asthma; assay: BAL fluid cell counts (Experimental Groups II); details: for total leukocytes in BAL fluid: vs untreated OVA group
Method: (§1) Male Balb/c SPF mice (25*2 g, 6-week-old) were purchased from the animal house facilities at the São Paulo School of Medicine (Federal University of São Paulo, Brazil). They were group-housed in a temperature-controlled room at 22° C. with a 12/12-hour light/dark cycle and allowed free access to food and water. The study is in agreement with the Ethical Principles for Animal Research established by the Brazilian College for Animal Experimentation (COBEA). According to the internal laboratory rules, euthanasia is performed if severe distress related to the test agents developed during the experiment. […] The compounds were dissolved in DMSO (Sigma Chemical Co., St. Louis, MO) at concentrations at which the determined dose per animal results from the intraperitoneal administration of 100 μl of solution (1:10 DMSO) and intra-nasal (i.n.) administration of 10 μl/animal (5 μl/nostril) of the solutions. Mice were sensitized with two subcutaneous injections of 0.4 ml of OVA/Al(OH)3, with an interval of 7 days (Sham animals received the Al(OH)3 suspension in PBS with no OVA). Seven days after the second sensitization (i.e., 3rd week), the animals were nebulized twice a week with the 1% OVA solution (Sham and untreated OVA groups were nebulized with PBS) during 20 minutes for the next 2 weeks. Sixty minutes before the challenges (OVA nebulization) and daily during the next 4 weeks, mice were intra-nasally treated (10 μl/animal as 5 μl/nostril) with the respective compounds/vehicle. After Penh evaluation, the mice were anesthetized with inhaled isofluorane (5% v/v in O2) and blood samples were collected from the descending abdominal aorta. The mice were then euthanized by exsanguination (blood samples were collected from each animal for leukocyte cell counting), and bronchoalveolar lavage (BAL) was performed by exposing and cannulating the trachea with a polyethylene tube (1 mm outer diameter) connected to a syringe. The lungs were washed by flushing 300 μL of heparin-containing PBS solution (20 Ul/mL). The retrieved BAL lavage aliquots were obtained, and the same procedure was repeated four additional times. The samples were submitted to centrifugation (1000 g for 10 min) and the cell pellet was resuspended in 200 μL of PBS solution. Total cell counts were determined using a Neubauer chamber, and differential counting was carried out in cytospin (Fanem Mod 2400; São Paulo, Brazil) preparations stained with May-Grünwald dye. Leukocytes were classified based on normal morphological criteria.

[4] = tested on: mice with OVA-induced allergic asthma; assay: Circulating leukocyte cell counts (Experimental Groups II)
Method: as §1

[5] = tested on: mice with OVA-induced allergic asthma; assay: Lung hyperreactivity/Penh function, whole body plethysmography, intra-nasal FB, F, B (Experimental Groups II); details: i.n. daily 2 weeks, all tested doses: FB 0.3, 1.0, 3.0 nmol/animal, vs untreated OVA group
[6] = i.n., all treatments: FB 0.3, 1.0, 3.0 nmol/animal, F and B 3.0 nmol/animal

## Budesonide 21-phosphate formoterol salt [FB]
OVA-sensitized mice [1]
  bronchial hyperreactivity (increased response of isolated bronchi to carbachol): Significant reduction of the bronchial hyperreactivity
OVA-sensitized mice [2]
  bronchial relaxation to salbutamol: significantly increased bronchial relaxation
IgE
  OVA induced increase of IgE plasma levels: significantly reduced OVA induced increase of IgE plasma levels
[3]; 0.3 nmol/animal i.n.
  total leukocytes in BAL fluid: significantly reduced
[3]; 3 nmol/animal i.n.
  OVA-induced increase of BAL macrophages: abolished the OVA-induced increase of BAL macrophages
  total leukocytes in BAL fluid: significantly reduced
[3]; [6]
  eosinophils in BAL samples: significantly controlled
[4]; 0.3 nmol/animal i.n.
  circulating macrophages: potent lowering effect
[4]; 3 nmol/animal i.n., vs untreated OVA group
  total leukocytes in blood samples: significantly reduced; also recorded: almost abolished
[4]; 3 nmol/day i.n., vs untreated allergic animals
  circulating lymphocytes: lower number of circulating cells than the untreated allergic animals
[4]; highest dose (3 nmol/animal i.n.)
  circulating eosinophils vs control Sham animals: even lower than in the control Sham animals
[4]; i.n., FB all tested doses (0.3, 1.0, 3.0 nmol/animal), B and F 3 nmol/animal
  circulating macrophages: significantly reduced the number of macrophages; also recorded: reduced the number of these cells to values lower than those observed in the control animals
[4]; [6]
  circulating eosinophils: decreased by FB treatment at all the tested doses
[5]; B 3.0 nmol/animal
  area under the Penh-metacholine concentration curve (AUC): significantly reduced Penh at all the MCh doses tested; also recorded: abolished
[5]; F and B 3.0 nmol/animal
  Penh maximal response Emax to inhaled metacholine: Significant reduction of the maximal response Emax; also recorded: abolished

## COc1ccc(CC(C)NCC(O)c2ccc(O)c(NC=O)c2)cc1 (stereo not shown) [F, N-[2-hydroxy-5-[1-hydroxy-2-[[2-(p-methoxyphenyl)-2-propy]-amino]-ethyl]-phenyl]-formamide, reference compound]
OVA-sensitized mice [2]
  bronchial relaxation to salbutamol: did not ameliorate the lack of bronchial response to salbutamol
